In ChEMBL document CHEMBL3886492, “Aminopyrimidinones as interleukin receptor-associated kinase inhibitors” (2015) one finds IC50 data, which are given here for 16 compounds.

The assay addresses T1, Interleukin-1 receptor-associated kinase 4 (Homo sapiens, UniProt Q9NWZ3).
T1 sequence (Q9NWZ3 whole entry): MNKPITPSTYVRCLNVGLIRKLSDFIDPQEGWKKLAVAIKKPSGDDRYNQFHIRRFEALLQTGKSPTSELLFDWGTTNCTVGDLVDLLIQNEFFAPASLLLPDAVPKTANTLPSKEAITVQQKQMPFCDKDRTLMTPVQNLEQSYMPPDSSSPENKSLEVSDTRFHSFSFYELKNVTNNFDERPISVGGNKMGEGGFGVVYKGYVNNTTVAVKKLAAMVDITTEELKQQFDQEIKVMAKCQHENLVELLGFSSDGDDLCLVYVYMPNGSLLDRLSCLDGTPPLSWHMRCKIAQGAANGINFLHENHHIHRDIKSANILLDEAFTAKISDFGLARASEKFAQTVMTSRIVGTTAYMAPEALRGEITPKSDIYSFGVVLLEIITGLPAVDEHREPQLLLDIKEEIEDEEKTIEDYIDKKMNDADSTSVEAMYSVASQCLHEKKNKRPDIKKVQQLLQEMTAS
The experiment in a line: IMAP technology (Molecular Devices): A 20 ul reaction mixture contains 10 mM TriHCl, pH 7.2, 0.5 nM GST tagged IRAK4 (SignalChem), 100 nM fluorescent peptide substrate (RP7030, Molecular Devices), 100 uM ATP, 1 mM DTT, 1 mM MgCl2, and 0.01% Tween 20. The reaction is initiated by the addition of ATP. After incubation for 30 minutes at 25° C., 60 ul of Progressive IMAP Reagent (Molecular Devices) is added to stop the reaction. Change in RP7030's FP is determined by a FP reader (Analyst HT, LJL BioSystems).

For the compound `N[C@H]1CCCC[C@H]1Nc1cccc2sc(-c3c(N[C@@H]4CCCNC4)nc(N4CCOCC4)[nH]c3=O)nc12` (racemic), the IC50 stood at 70 nM.

For the compound `CC(=O)N1CCC(c2nc(N[C@@H]3CCCNC3)c(-c3nc4ccccc4s3)c(=O)[nH]2)CC1`, the IC50 was 450 nM.

`Nc1ccc2c(c1)CN(c1nc(N[C@@H]3CCCNC3)c(-c3nc4ccccc4s3)c(=O)[nH]1)CC2`: the IC50 was 49 nM.

On to `CC1(Nc2nc(N[C@@H]3C[C@H](CO)[C@@H](O)[C@H]3O)c(-c3nc4ccccc4s3)c(=O)[nH]2)CCC1`, for which the IC50 was 1690 nM.

Turning to `CC1(Nc2nc(N3CCOCC3)[nH]c(=O)c2-c2ccc3ccccc3n2)CCCNC1` (stereo unspecified), the IC50 came out at 130 nM.

Take `O=c1[nH]c(N2CCc3ccccc3C2)nc(N[C@@H]2C[C@H](CO)[C@@H](O)[C@H]2O)c1-c1nc2ccccc2s1`: the IC50 was 27.5 nM.

With `O=c1[nH]c(N2CCC3(CC2)CNC3)nc(N[C@@H]2CCCNC2)c1-c1nc2ccccc2s1`, the IC50 worked out at 40 nM.

As for `Cc1csc(-c2c(N[C@@H]3CCCNC3)nc(N3CCOCC3)[nH]c2=O)n1`, the IC50 stood at 554 nM.

On to `CC(C)(C)OC(=O)N1CC2(CCN(c3nc(N[C@@H]4CCCNC4)c(-c4nc5ccccc5s4)c(=O)[nH]3)CC2)C1`, for which the IC50 is 27 nM.

On to `O=c1[nH]c(N2CCc3ccccc3C2)nc(N[C@@H]2CCCNC2)c1-c1nc(-c2ccc(F)cc2)cs1`, for which the IC50 was determined as 57 nM.

For the compound `CN1CCC(c2nc(N[C@@H]3CCCNC3)c(-c3nc4ccccc4s3)c(=O)[nH]2)CC1`, the IC50 came to 690 nM.

For the compound `CS(=O)(=O)N1CCN(c2nc(N[C@@H]3CCCNC3)c(-c3nc4c(C5CC5)nccc4s3)c(=O)[nH]2)CC1`, the IC50 worked out at 6.9 nM.

For the compound `COC(=O)N1CCC(c2nc(N[C@@H]3CCCNC3)c(-c3nc4ccccc4s3)c(=O)[nH]2)CC1`, the IC50 was 270 nM.

As to `N[C@H]1CCCC[C@H]1Nc1cccc2sc(-c3c(N[C@@H]4CCCNC4)nc(N4CCOCC4)[nH]c3=O)nc12`, the IC50 was determined as 2 nM.

Regarding `O=c1[nH]c(C2CCOCC2)nc(N[C@@H]2CCCNC2)c1-c1nc2ccccc2s1`, the IC50 amounted to 380 nM.

Regarding `Cc1cccc(-c2c(N[C@@H]3C[C@H](CO)[C@@H](O)[C@H]3O)nc(N3CCOCC3)[nH]c2=O)n1`, the IC50 was 214 nM.

For orientation: IC50 means the midpoint of a concentration-inhibition curve.
